Test results reported in patent US20030109581A1, “Chemical attractants for yellowjacket wasps” (priority 2001, published 2003).

Tests used:
[1] = system: Vespula maculifrons; experiment: Field trap captures, BARC-W, 9 days in September/October; assay type: in vivo
Experimental: (§1) Field tests were carried out using lures prepared as described in Example 1. Traps baited with various prepared lures, in addition to unbaited control traps, were hung from trees or fences at three locations: Beltsville Agricultural Research Center-West (BARC-W), Beltsville, Md.; University of Maryland Apiary; and a private residence, Silver Spring, Md., with apple trees on the property. Most tests were conducted late in the season when populations of yellowjackets were greatest. After exposure in the field for varying periods of time, traps were brought to the laboratory for sorting and counting insects by species.
The equivalence of T vs. L was tested along with the effect of B and the possible synergism of HB. Six chemical treatments in replicates of three were tested over a period of 9 days in September/October at BARC-W: IB/AA; HB+A/T/B; IB/AA+A/T;
The test also corroborates earlier results indicating localized distribution of yellowjacket species since no V. squamosa were captured and only one individual of V. germanica was caught. The synergistic effect between IB/AA and the novel blends was also confirmed.
Polyvinyl chloride (PVC) plugs containing an about 16% load of volatiles were prepared. For purposes of example, lures containing (E)-2-hexenal diethyl acetal, A (Bedoukian, Inc., Danbury, Conn.) and linalool, L (Aldrich Chemicals, Milwaukee, Wis.) are described. […]

[2] = system: Vespula maculifrons (eastern yellowjacket); experiment: Field trap captures, BARC-W, 7 days in September (FIG. 1); assay type: in vivo
Experimental: as §1
In initial experiments, the equivalence of H vs. A was tested along with the synergism between IB/AA and H/T/B or A/T/B blends. […] The use of acetal (A) is considered more desirable than hexenal (H) for this type of lure because of its lower volatility and greater stability.
Polyvinyl chloride (PVC) plugs containing an about 16% load of volatiles were prepared. For purposes of example, lures containing (E)-2-hexenal diethyl acetal, A (Bedoukian, Inc., Danbury, Conn.) and linalool, L (Aldrich Chemicals, Milwaukee, Wis.) are described.
PVC resin (200 g) was mixed thoroughly with 60 ml dioctyl phthalate, a blend of 30 ml of A with 20 ml of L was poured into the plasticized PVC and mixed. […]

In the case of `C=CC(C)(O)CCC=C(C)C` (stereo not drawn) [L, linalool], the “equivalence of T vs. L” value [1] is reported as “effectively substitutes for T”.
With `CCC/C=C/C(OCC)OCC` [A, (E)-2-hexenal diethyl acetal] the “equivalence of H vs. A” value [2] was “can effectively replace H in this system”.
For `OCc1ccccc1` [B, benzyl alcohol], the “effect of B on lure activity” value [1] was “is not essential for lure activity”.
